# From US9809555B2, “Form of mefenpyr-diethyl, a process for its preparation and use of the same” (ROTAM AGROCHEM INTERNATIONAL COMPANY LIMITED, priority 2015, dated 2017)
# Columns and labels:
# [1] = General stability of mefenpyr-diethyl forms (hydrolysis in water or on storage); assay type: physicochemical; details: dissolved or dispersed in water, or during storage exposed to moisture, result in words
# Text: It will generally undergo significant hydrolysis when dissolved or dispersed in water. Furthermore, hydrolysis can occur during storage, particularly where the compound is exposed to moisture. As a result, the stability of mefenpyr-diethyl is of great concern with respect to providing the commercially available formulations. Therefore, there is a need to provide a novel form mefenpyr-diethyl with increased stability in formulations.
# Accordingly, in an embodiment, the invention provides a novel crystalline form of mefenpyr-diethyl, termed “crystalline modification I”, and a process for its preparation, as well as its use in agrochemical compositions. […] Accordingly, in an embodiment, the invention also provides compositions for controlling undesirable plant growth, such as weeds, comprising the crystalline modification I of mefenpyr-diethyl with sulfonylurea herbicides, as a mixture with auxiliaries and carriers. The use of the crystalline modification I of mefenpyr-diethyl with sulfonylurea herbicides in the control of undesired plant growth and a method for the same are also provided by embodiments of the invention.
# [2] = Stability test: accelerated storage of formulations (CIPAC MT 46.3), mefenpyr-diethyl content by HPLC before and after aging; assay type: physicochemical; details: stored at 54° C. for 1 week
# Experimental: The stability of the mefenpyr-diethyl in these compositions was determined by aging samples in heated ovens having the same atmosphere therein, and then comparing the mefenpyr-diethyl content before and after aging to determine relative percentage of hydrolysis (RPH). RPH was calculated by the following equation: […]
# Mefenpyr-diethyl content was determined by assaying the compositions with high-pressure liquid chromatography (HPLC) using reverse phase columns and eluants.
# Samples prepared in Examples 4, 5 and 6 were stored at 54° C. for 1 week. The procedures are followed according to CIPAC MT 46.3. The concentration of mefenpyr-diethyl was measured at the end of each storage time by HPLC.
# [3] = Example 4 oil based suspension concentrate (OD) with iodosulfuron-methyl-sodium, 10 weight % mefenpyr-diethyl
# [4] = Example 5 soluble granules (SG) with mesosulfuron-methyl, 7 weight % mefenpyr-diethyl
# [5] = Example 6 water dispersible granules (WG) with iodosulfuron-methyl-sodium, 7 weight % mefenpyr-diethyl
Structure (SMILES),stability (hydrolysis) ([1]; listed as mefenpyr-diethyl in amorphous state),"RPH % (relative percentage of hydrolysis) [2, 3] [%]","RPH % (relative percentage of hydrolysis) [2, 4] [%]","RPH % (relative percentage of hydrolysis) [2, 5] [%]",stability (hydrolysis) [1]
"CCOC(=O)C1=NN(c2ccc(Cl)cc2Cl)C(C)(C(=O)OCC)C1 (racemic) [Amorphous mefenpyr-diethyl, diethyl (RS)-1-(2,4-dichlorophenyl)-5-methyl-2-pyrazoline-3,5-dicarboxylate]",highly unstable,50,40,45,
"CCOC(=O)C1=NN(c2ccc(Cl)cc2Cl)C(C)(C(=O)OCC)C1 (racemic) [Mefenpyr-diethyl, crystalline modification I] [diethyl (RS)-1-(2,4-dichlorophenyl)-5-methyl-2-pyrazoline-3,5-dicarboxylate]",,0,0,0,increased stability relative to the amorphous form
